# Laboratory results as given in patent US8580959B2, “Azolotriazinone melanin concentrating hormone receptor-1 antagonists” (Bristol-Myers Squibb Company, priority 2008, dated 2013).
# Structures can show the parent of a compound that is named as a salt.
# Columns and labels:
# [1] = target: T1, mutated (E4Q, A5T) hMCHR1 receptor (Homo sapiens, UniProt Q99705, A5T/E4Q); test: Radioligand binding assay for assessment of MCHR1 activity (human); settings: membranes of HEK-293 cells, [Phe13,[125I]Tyr19]-MCH competition
# T1 construct: expressed in transfected cells; host or cells: HEK-293 (stably transfected), membranes
# T1 sequence (Q99705 whole entry E4Q/A5T): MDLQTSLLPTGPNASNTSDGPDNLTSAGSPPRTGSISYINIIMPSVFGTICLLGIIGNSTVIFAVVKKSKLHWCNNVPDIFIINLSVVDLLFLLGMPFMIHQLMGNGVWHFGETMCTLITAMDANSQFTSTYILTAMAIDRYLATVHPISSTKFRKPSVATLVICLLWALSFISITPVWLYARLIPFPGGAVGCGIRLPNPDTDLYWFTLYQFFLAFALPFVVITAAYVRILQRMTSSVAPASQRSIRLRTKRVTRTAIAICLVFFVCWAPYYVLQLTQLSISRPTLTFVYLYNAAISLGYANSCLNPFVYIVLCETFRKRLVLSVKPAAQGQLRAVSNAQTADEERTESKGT
# Description: Radioligand Binding Assay for Assessment of MCHR1 Activity
# Membranes from stably transfected HEK-293 cells expressing a mutated (E4Q, A5T) hMCHR1 receptor were prepared by dounce homogenization and differential centrifugation. Binding experiments were carried out with 0.5-1.0 ug of membrane protein incubated in a total of 0.2 ml in 25 mM HEPES (pH 7.4) with 10 mM MgCl2, 2 mM EGTA, and 0.1% BSA (Binding Buffer) for 90 min. […] Filters were dried, 0.05 ml microscint 20 was added to each well and radioactivity was subsequently quantified by scintillation counting on a TOPCOUNT® microplate scintillation counter (Packard). Inhibitory constants were determined by nonlinear least squares analysis using a four parameter logistic equation.
# MCHR1 Rat = MCHR1 Rat (Rattus norvegicus, UniProt P97639); test: MCHR1 rat binding (radioligand binding assay)
# Sequence of MCHR1 Rat (P97639 whole entry): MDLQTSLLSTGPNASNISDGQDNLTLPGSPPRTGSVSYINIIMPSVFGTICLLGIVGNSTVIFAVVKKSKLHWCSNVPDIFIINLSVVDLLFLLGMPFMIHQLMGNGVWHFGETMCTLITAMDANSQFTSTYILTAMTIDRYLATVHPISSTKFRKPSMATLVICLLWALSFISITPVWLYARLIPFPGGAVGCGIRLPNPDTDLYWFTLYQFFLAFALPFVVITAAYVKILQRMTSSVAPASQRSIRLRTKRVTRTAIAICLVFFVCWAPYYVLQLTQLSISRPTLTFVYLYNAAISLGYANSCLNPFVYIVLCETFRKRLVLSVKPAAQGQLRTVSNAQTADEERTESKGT
# Male SPRAGUE DAWLEY rats = test: Assessment of in vivo MCHR activity (body weight, rats with choice of chow and high fat high sugar diet); parameters: species or system rat; settings: dose 30 mg/kg p.o. daily day 0 through day 4, rats; parent dosed as its prodrug example (22, 63, 50)
# Description: Assessment of In Vivo MCHR Activity
# Male SPRAGUE DAWLEY® (CD, Charles River Breeding Laboratory) rats weighing approximately 240 grams were place in individual plastic cages with ALPHADRI® bedding. The room was maintained at 72° F. and 50% humidity, and a 12/12 light dark cycle with lights out at 1600 hours. The rats were conditioned for 5 days prior to the start of the study to having a choice of foods. A normal chow (HARLAN TEKLAD®, 2018) that contains 18% protein, 5% fat and 73% carbohydrate and a high fat high sugar diet (Research Diets (D2327)) that contains 20% protein, 40% fat and 40% carbohydrate where the carbohydrate is entirely sucrose and the fat is soybean and coconut oil. […] Body weight and consumption of both kinds of food as well as water intake were measured daily. Water was available ad lib throughout the study. Food consumption is presented as daily caloric consumption which is the sum of grams of chow multiplied by the Kcal per gram (3.5) plus grams of high fat high sugar multiplied by Kcal per gram (4.59).
# Baseline body weight was measured prior to drug treatment on day 0 of the study. Baseline food consumption was the average of the 3 days prior to the first drug treatment. Drug was administered daily p.o. at 2.0 ml/kg at 1500 hours beginning on day 0 and continuing daily through day 4 as a suspension in 0.5% methyl cellulose, 0.1% Tween 80 in water at 3.0, 10 and 30 mg/kg p.o. All data were evaluated using ANOVA and Fishers PLSD statistics.
Compound,Ki [1] [nM],Ki (MCHR1 Rat) [nM],% Weight Reduction versus Vehicle (Male SPRAGUE DAWLEY rats) [%]
"O=c1c2cc(-c3ccc(Cl)cc3)cn2ncn1-c1ccc(N2CCC(O)CC2)nc1 [Example 18, 6-(4-Chlorophenyl)-3-(6-(4-hydroxypiperidin-1-yl)pyridin-3-yl)pyrrolo[1,2-f][1,2,4]triazin-4(3H)-one]",11.5,–,–
"COc1cc(-n2cnn3cc(-c4ccc(Cl)cc4)cc3c2=O)ccc1OCCN1CCCC1 [Example 4, 6-(4-Chlorophenyl)-3-(3-methoxy-4-(2-(pyrrolidin-1-yl)ethoxy)phenyl)pyrrolo[1,2-f][1,2,4]triazin-4(3H)-one]",0.52,0.7,–
"COc1cc(-n2cnn3cc(-c4ccc(Cl)cc4)cc3c2=O)ccc1OCC(C)N1CCCC1 (centres unmarked) [Example 13, 6-(4-Chlorophenyl)-3-[3-methoxy-4-(2-pyrrolidin-1-yl-propoxy)-phenyl]-3H-pyrrolo[2,1-f] [1,2,4]triazin-4-one]",0.17,–,–
"CCS(=O)(=O)C[C@H](COc1ccc(-n2cnn3cc(-c4ncc(Cl)cn4)cc3c2=O)cc1OC)OC(=O)CN [Example 61, (S)-1-(4-(6-(5-Chloropyrimidin-2-yl)-4-oxopyrrolo[1,2-f][1,2,4]triazin-3(4H)-yl)-2-methoxyphenoxy)-3-(ethylsulfonyl)propan-2-yl 2-aminoacetate, TFA]",126,–,–
"6-(4-Chlorophenyl)-3-(4-(2-hydroxy-2-methylpropoxy)-3-methoxyphenyl)pyrrolo[1,2-f][1,2,4]triazin-4(3H)-one [Example 1]",–,–,6.9
"COc1cc(-n2cnn3cc(-c4ccc(Cl)cc4)cc3c2=O)ccc1N1C[C@H](OC(=O)[C@@H](N)C(C)C)[C@H](OC(=O)[C@@H](N)C(C)C)C1 [Example 56, (2S,2′S)-((3S,4R)-1-(4-(6-(4-Chlorophenyl)-4-oxopyrrolo[1,2-f][1,2,4]triazin-3(4H)-yl)-2-methoxyphenyl)pyrrolidine-3,4-diyl)bis(2-amino-3-methylbutanoate), 2TFA]",9.4,–,–
"COc1ccc(-n2cnn3cc(-c4ccc(Cl)cc4)cc3c2=O)cc1OC [Example 2, 6-(4-Chlorophenyl)-3-(3,4-dimethoxyphenyl)pyrrolo[1,2-f][1,2,4]triazin-4(3H)-one]",21.4,8.29,–
"COc1cc(-n2cnn3cc(-c4ncc(Cl)cn4)cc3c2=O)ccc1OCC1(O)CC(F)(F)C1 [Example 57, 6-(5-Chloropyrimidin-2-yl)-3-(4-((3,3-difluoro-1-hydroxycyclobutyl)methoxy)-3-methoxyphenyl)pyrrolo[1,2-f][1,2,4]triazin-4(3H)-one]",9,–,–
"COc1cc(-n2cnn3cc(-c4ccc(Cl)cc4)cc3c2=O)ccc1OCC(O)C1CC1 (centres unmarked) [Example 3, 6-(4-Chlorophenyl)-3-(4-(2-cyclopropyl-2-hydroxyethoxy)-3-methoxyphenyl)pyrrolo[1,2-f][1,2,4]triazin-4(3H)-one]",4.49,2.79,–
"COc1cc(-n2cnn3nc(-c4ccc(Cl)cc4)cc3c2=O)ccc1OCCN1CCC(O)C1 (centres unmarked) [Example 6, 6-(4-Chlorophenyl)-3-(4-(2-(3-hydroxypyrrolidin-1-yl)ethoxy)-3-methoxyphenyl)pyrazolo[1,5-f][1,2,4]triazin-4(3H)-one]",2.2,0.8,–
"COc1cc(-n2cnn3cc(-c4ccc(Cl)cn4)cc3c2=O)ccc1OCC1(O)CC(F)(F)C1 [Example 46, 6-(5-Chloropyridin-2-yl)-3-(4-((3,3-difluoro-1-hydroxycyclobutyl)methoxy)-3-methoxyphenyl)pyrrolo[1,2-f][1,2,4]triazin-4(3H)-one-4(3H)-one]",–,–,2.6
"COc1cc(-n2cnn3cc(-c4ccc(Cl)cc4)cc3c2=O)ccc1OCC(C)(C)O [Example 1, 6-(4-Chlorophenyl)-3-(4-(2-hydroxy-2-methylpropoxy)-3-methoxyphenyl)pyrrolo[1,2-f][1,2,4]triazin-4(3H)-one]",4.42,2.76,–
"COc1cc(-n2cnn3cc(-c4ccc(Cl)cn4)cc3c2=O)ccc1OCC(C)(C)O [Example 33, 6-(5-Chloropyridin-2-yl)-3-[4-(2-hydroxy-2-methyl-propoxy)-3-methoxy-phenyl]-3H-pyrrolo[2,1-f][1,2,4]triazin-4-one]",–,–,11.2
"COc1ccc(-n2cnn3cc(-c4ccc(Cl)cc4)nc3c2=O)cc1OC [Example 38, 6-(4-Chlorophenyl)-3-(3,4-dimethoxy-phenyl)-3H-imidazo[2,1-f][1,2,4]triazin-4-one]",76.1,–,–
"O=c1c2cc(-c3ccc(Cl)cn3)cn2ncn1-c1ccc(N2CC[C@@H](O)C2)nc1 [Example 31, 6-(5-Chloropyridin-2-yl)-3-[6-(3-hydroxy-pyrrolidin-1-yl)-pyridin-3-yl]-3H-pyrrolo[2,1-f][1,2,4]triazin-4-one]",124,–,–
